MIC and viability data for 13 compounds are collected here from ChEMBL document CHEMBL5143631, “nTZDpa (non-thiazolidinedione PPARγ partial agonist) derivatives retain antimicrobial activity without improving renal toxicity” (Bioorg Med Chem Lett, 2022).

For one data set, the system named is Staphylococcus aureus. Description: Antibacterial activity against Staphylococcus aureus assessed as inhibition of bacterial growth. The class given is functional.
A short description of data set [1]: Toxicity in renal cells (unknown origin) assessed as cell viability at 64 ug/ml relative to control. Format: cell-based. The following applies: at 64 µg/mL, read-out: Activity.

Converted amounts (≈) assume the structure as drawn.

On to `O=C(O)CCNC(=O)c1c(Oc2ccc(I)cc2)c2cc(Cl)ccc2n1Cc1ccc(Cl)cc1`, for which, in the data set with Staphylococcus aureus, the minimal inhibitory concentration (MIC) (as a rule, the lowest concentration found to suppress growth) was found to be 32 µg/mL (≈ 52.5 µM). Further, in data set [1], the viability at 64 ug/ml came out at 15%.

For `Cc1ccc(Cn2c(C(=O)O)c(Oc3ccc(I)cc3)c3cc(Cl)ccc32)cc1`, the MIC in the data set with Staphylococcus aureus is 8 µg/mL (≈ 15.5 µM). Moreover, the viability at 64 ug/ml in data set [1] is 15%.

As for `CN[C@H](CC(C)C)C(=O)N[C@H]1C(=O)N[C@@H](CC(N)=O)C(=O)N[C@H]2C(=O)N[C@H]3C(=O)N[C@H](C(=O)N[C@H](C(=O)O)c4cc(O)cc(O)c4-c4cc3ccc4O)[C@H](O)c3ccc(c(Cl)c3)Oc3cc2cc(c3O[C@@H]2O[C@H](CO)[C@@H](O)[C@H](O)[C@H]2O[C@H]2C[C@](C)(N)[C@H](O)[C@H](C)O2)Oc2ccc(cc2Cl)[C@H]1O` [VANCOMYCIN], the viability at 64 ug/ml in data set [1] is 65%.

Turning to `O=C(O)c1c(Oc2cccc(I)c2)c2cc(Cl)ccc2n1Cc1ccc(Br)cc1`, the MIC in the data set on Staphylococcus aureus is 8 µg/mL (≈ 13.7 µM). Besides, the viability at 64 ug/ml in data set [1] amounted to 15%.

Consider `Clc1ccc(Cn2c(-c3nnn[nH]3)c(Oc3ccccc3)c3cc(Cl)ccc32)cc1`, for which the MIC with Staphylococcus aureus amounted to 8 µg/mL (≈ 18.3 µM). Also, the viability at 64 ug/ml in data set [1] is 20%.

On to `O=C(O)c1c(Oc2ccc(I)cc2)c2cc(Cl)ccc2n1Cc1ccc(Cl)c(Cl)c1`, for which the MIC in the data set with Staphylococcus aureus came to 4 µg/mL (≈ 6.99 µM). For the same compound, the viability at 64 ug/ml in data set [1] was determined as 15%.

On to `Clc1ccc(Cn2c(-c3nnn[nH]3)c(Oc3ccc(I)cc3)c3cc(Cl)ccc32)cc1`, for which the MIC in the data set with Staphylococcus aureus is over 64 µg/mL. In addition, in data set [1], the viability at 64 ug/ml amounted to 25%.

Take `O=C(O)c1c(Oc2ccc(I)cc2)c2cc(Cl)ccc2n1Cc1ccc(Cl)cc1`: the minimal inhibitory concentration (MIC) in the data set on Staphylococcus aureus was 1 µg/mL (≈ 1.86 µM). For the same compound, the viability at 64 ug/ml in data set [1] stood at 15%.

On to `O=C(O)CCNC(=O)c1c(Oc2ccccc2)c2cc(Cl)ccc2n1Cc1ccc(Cl)cc1`, for which, in the data set with Staphylococcus aureus, the MIC amounted to 4 µg/mL (≈ 8.28 µM). The viability at 64 ug/ml in data set [1] stood at 20%.

Regarding `CC(C)(C)c1ccc(Cn2c(C(=O)O)c(Oc3ccc(I)cc3)c3cc(Cl)ccc32)cc1`, the minimal inhibitory concentration (MIC) in the data set on Staphylococcus aureus was determined as 1 µg/mL (≈ 1.79 µM). Further, the viability at 64 ug/ml in data set [1] worked out at 10%.

Turning to `O=C(O)c1c(Oc2ccc(I)cc2)c2cc(Cl)ccc2n1Cc1ccc(Br)cc1`, the MIC with Staphylococcus aureus was found to be 2 µg/mL (≈ 3.43 µM). The viability at 64 ug/ml in data set [1] is 15%.

`O=C(O)c1c(Oc2ccc(I)cc2)c2cc(Cl)ccc2n1-c1ccc(Cl)cc1`: the MIC in the data set with Staphylococcus aureus was 16 µg/mL (≈ 30.5 µM). In addition, the viability at 64 ug/ml in data set [1] came out at 20%.

As for `O=C(O)c1c(Oc2cccc(I)c2)c2cc(Cl)ccc2n1Cc1ccc(Cl)cc1`, the minimal inhibitory concentration (MIC) in the data set with Staphylococcus aureus is 1 µg/mL (≈ 1.86 µM). For the same compound, the viability at 64 ug/ml in data set [1] is 10%.
